Measured values: US8273724B2, “Melanoma antigens and their use in diagnostic and therapeutic methods” (The United States of America, as represented by the …, priority 1994, dated 2012)
Read-outs that look alike come from different tables or passages of the source. Where a SMILES comes first, the peptide text is derived from it.

Columns and labels:
HLA-A2.1 = HLA-A2.1 (Homo sapiens, UniProt P04439, D140Y/D185E/D98H/E176V/E277Q/G131W/G231S/I119V/I121R/I166T/I218V/L300P/L318F/N151K/N90K/P208A/P217A/Q86G/Q94H/R138H/R169H/T345S); assay: HLA-A2.1 binding assay of modified peptides, inhibition of radiolabeled Hbc 18-27 (Example 5); conditions: for IC50: modified gp100 G9-154 peptides, read-out: Binding affinity to HLA-A2.1
[1] = tested on: T2 cell lines preincubated with peptide; assay: Recognition of modified peptides by natural epitope (M9-2, G9-154, G9-209, G9-280) reactive T-cells, 51Cr release on peptide-pulsed T2 cells (Example 5); format: cell-based, human
Description: Assessment of antigen recognition by CTL. ^51Cr release cytotoxic assays were performed to detect the recognition of peptide and melanoma cells by CTL. To analyze peptide recognition, T2 cell lines were preincubated for 2 h at 37° C. with 1 ug/ml peptide, washed and used as target cells in a ^51Cr release cytotoxic assay. The melanoma lines 624mel was established in our laboratory (See Example 1).
In order to make more immunogenic peptides for induction of anti-melanoma T-cells than natural melanoma epitopes, a variety of peptides in which at least 1 amino acid was changed based on consensus motifs in peptides binding to a specific MHC Class I allele Falk, et al. (1991) Nature 351:290; Kubo et al. (1994) J. Immunol 152:3913; Parker, K. et al. (1992) Journal of Immunology 149:3580; Ruppert, J. et al. (1993) Cell 74:929-937) (Tables 14, 15, 16, and 17). […] By changing amino acid at the 1st, 2nd, 3rd or 9th positions which are important for HLA-A2 binding to the peptide, but less important for recognition by T-cell receptors, artificial peptides which can bind to HLA-A2.1 with higher affinity and still be recognized by natural epitope specific T-cells may be generated.

HLA-A2.1+ T2 cells = conditions: for % specific lysis at E:T = 40:1: peptide 1 ug/ml

Row | Structure (SMILES) | IC50 (HLA-A2.1) | Recognition by G9-154 reactive T-cell [1] | further results
1 | CC(C)[C@H](NC(=O)[C@H](CCC(N)=O)NC(=O)[C@H](Cc1c[nH]c2ccccc12)NC(=O)[C@H](Cc1ccc(O)cc1)NC(=O)[C@H](CCC(N)=O)NC(=O)CNC(=O)[C@H](Cc1c[nH]c2ccccc12)NC(=O)[C@@H](NC(=O)[C@@H](N)Cc1c[nH]c2ccccc12)[C@@H](C)O)C(=O)O [G9-154-1W] (H-WTWGQYWQV-OH; N-terminus and C-terminus assumed) | 60 nM | − | 
2 | CSCC[C@H](NC(=O)[C@@H](N)CCCCN)C(=O)N[C@@H](Cc1c[nH]c2ccccc12)C(=O)NCC(=O)N[C@@H](CCC(N)=O)C(=O)N[C@@H](Cc1ccc(O)cc1)C(=O)N[C@@H](Cc1c[nH]c2ccccc12)C(=O)N[C@@H](CCC(N)=O)C(=O)N[C@H](C(=O)O)C(C)C [G9-154-2M] (H-KMWGQYWQV-OH; N-terminus and C-terminus assumed) | 6.5 nM | + (+, recognized) | 
3 | CC(C)[C@H](NC(=O)[C@H](CCC(N)=O)NC(=O)[C@H](Cc1c[nH]c2ccccc12)NC(=O)[C@H](Cc1ccc(O)cc1)NC(=O)[C@H](CCC(N)=O)NC(=O)CNC(=O)[C@H](Cc1ccccc1)NC(=O)[C@@H](NC(=O)[C@@H](N)CCCCN)[C@@H](C)O)C(=O)O [G9-154-3F] (H-KTFGQYWQV-OH; N-terminus and C-terminus assumed) | 21 nM | + (+, recognized) | 
4 | CC(C)[C@H](NC(=O)[C@H](CCC(N)=O)NC(=O)[C@H](Cc1c[nH]c2ccccc12)NC(=O)[C@H](Cc1ccc(O)cc1)NC(=O)[C@H](CCC(N)=O)NC(=O)CNC(=O)[C@H](Cc1ccc(O)cc1)NC(=O)[C@@H](NC(=O)[C@@H](N)CCCCN)[C@@H](C)O)C(=O)O [G9-154-3Y] (H-KTYGQYWQV-OH; N-terminus and C-terminus assumed) | 30 nM | + (+, recognized) | 
5 | CC(C)[C@H](NC(=O)[C@H](CO)NC(=O)[C@H](Cc1ccccc1)NC(=O)[C@@H]1CCCN1C(=O)[C@@H](NC(=O)[C@H](CCC(N)=O)NC(=O)[C@H](CC(=O)O)NC(=O)[C@@H](NC(=O)[C@@H](N)Cc1ccccc1)[C@@H](C)O)C(C)C)C(=O)O [G9-209-1F] |  |  | binding affinity to HLA-A2.1 compared with the natural epitope (HLA-A2.1): higher binding affinity; Recognition by G9-209 reactive T-cell [1]: + (+, recognized); recognition by the original melanoma reactive T-cells [1]: recognized
6 | CC(C)C[C@H](NC(=O)[C@@H](N)Cc1c[nH]c2ccccc12)C(=O)N[C@@H](CC(=O)O)C(=O)N[C@@H](CCC(N)=O)C(=O)N[C@H](C(=O)N1CCC[C@H]1C(=O)N[C@@H](Cc1ccccc1)C(=O)N[C@@H](CO)C(=O)N[C@H](C(=O)O)C(C)C)C(C)C [G9-209-1W2L] |  |  | binding affinity to HLA-A2.1 compared with the natural epitope (HLA-A2.1): higher binding affinity; Recognition by G9-209 reactive T-cell [1]: + (+, recognized); recognition by the original melanoma reactive T-cells [1]: recognized
7 | CC[C@H](C)[C@H](NC(=O)[C@@H](N)[C@@H](C)O)C(=O)N[C@H](C(=O)N[C@@H](CC(=O)O)C(=O)N[C@@H](CCC(N)=O)C(=O)N[C@H](C(=O)N1CCC[C@H]1C(=O)N[C@@H](Cc1ccccc1)C(=O)N[C@@H](CO)C(=O)N[C@H](C(=O)O)C(C)C)C(C)C)[C@@H](C)O [G10208] |  |  | % specific lysis at E:T = 40:1 (HLA-A2.1+ T2 cells; Exp. 1, TIL 620-1): 42%; % specific lysis at E:T = 40:1 (HLA-A2.1+ T2 cells; Exp. 1, TIL 620-2): 36%; % specific lysis at E:T = 40:1 (HLA-A2.1+ T2 cells; Exp. 1, TIL 660-1): 7%; % specific lysis at E:T = 40:1 (HLA-A2.1+ T2 cells; Exp. 1, TIL 1143): 4%; % specific lysis at E:T = 40:1 (HLA-A2.1+ T2 cells; Exp. 1, TIL 1200): 2%; % specific lysis at E:T = 40:1 (HLA-A2.1+ T2 cells; Exp. 1, TIL 1235): 3%; % specific lysis at E:T = 40:1 (HLA-A2.1+ T2 cells; Exp. 2, TIL 620-1): 35%; % specific lysis at E:T = 40:1 (HLA-A2.1+ T2 cells; Exp. 2, TIL 620-2): 80%; % specific lysis at E:T = 40:1 (HLA-A2.1+ T2 cells; Exp. 2, TIL 660-2): 7%; % specific lysis at E:T = 40:1 (HLA-A2.1+ T2 cells; Exp. 2, TIL 1143): 10%; % specific lysis at E:T = 40:1 (HLA-A2.1+ T2 cells; Exp. 2, TIL 1200): 1%; % specific lysis at E:T = 40:1 (HLA-A2.1+ T2 cells; Exp. 2, TIL 1235): 5%; TIL that recognize the peptide (HLA-A2.1+ T2 cells; cytotoxicity assays, T2 preincubated with peptide): recognized only by TIL620
8 | CC[C@H](C)[C@H](NC(=O)CNC(=O)[C@@H](NC(=O)[C@H](Cc1ccccc1)NC(=O)[C@H](C)NC(=O)[C@H](C)N)[C@@H](C)CC)C(=O)N[C@@H](CC(C)C)C(=O)N[C@H](C(=O)N[C@H](C(=O)O)C(C)C)[C@@H](C)O [M9-2-3F] |  |  | Recognition by M9-2 reactive T-cell [1]: −
9 | CC[C@H](C)[C@H](NC(=O)CNC(=O)[C@@H](NC(=O)[C@H](Cc1c[nH]c2ccccc12)NC(=O)[C@H](C)NC(=O)[C@H](C)N)[C@@H](C)CC)C(=O)N[C@@H](CC(C)C)C(=O)N[C@H](C(=O)N[C@H](C(=O)O)C(C)C)[C@@H](C)O [M9-2-3W] |  |  | Recognition by M9-2 reactive T-cell [1]: −

Second part, led by results:

Row | IC50 (HLA-A2.1) | Structure (SMILES) | Recognition by G9-154 reactive T-cell [1] | further results
10 | 5.2 nM | CC(C)[C@H](NC(=O)[C@H](CCC(N)=O)NC(=O)[C@H](Cc1c[nH]c2ccccc12)NC(=O)[C@H](Cc1ccc(O)cc1)NC(=O)[C@H](CCC(N)=O)NC(=O)CNC(=O)[C@H](Cc1c[nH]c2ccccc12)NC(=O)[C@@H](NC(=O)[C@H](C)N)[C@@H](C)O)C(=O)O [G9-154-1A] (H-ATWGQYWQV-OH; N-terminus and C-terminus assumed) | + (+, recognized) | 
11 | 2.6 nM | CC(C)C[C@H](NC(=O)[C@@H](N)Cc1ccccc1)C(=O)N[C@@H](Cc1c[nH]c2ccccc12)C(=O)NCC(=O)N[C@@H](CCC(N)=O)C(=O)N[C@@H](Cc1ccc(O)cc1)C(=O)N[C@@H](Cc1c[nH]c2ccccc12)C(=O)N[C@@H](CCC(N)=O)C(=O)N[C@H](C(=O)O)C(C)C [G9-154-1F2L] (H-FLWGQYWQV-OH; N-terminus and C-terminus assumed) | − | 
12 | 1.6 nM | CC(C)[C@H](NC(=O)[C@H](CCC(N)=O)NC(=O)[C@H](Cc1c[nH]c2ccccc12)NC(=O)[C@H](Cc1ccc(O)cc1)NC(=O)[C@H](CCC(N)=O)NC(=O)CNC(=O)[C@H](Cc1c[nH]c2ccccc12)NC(=O)[C@@H](NC(=O)[C@@H](N)Cc1ccccc1)[C@@H](C)O)C(=O)O [G9-154-1F] (H-FTWGQYWQV-OH; N-terminus and C-terminus assumed) | − | 
13 | 1.6 nM | CC(C)C[C@H](NC(=O)[C@@H](N)CC(C)C)C(=O)N[C@@H](Cc1c[nH]c2ccccc12)C(=O)NCC(=O)N[C@@H](CCC(N)=O)C(=O)N[C@@H](Cc1ccc(O)cc1)C(=O)N[C@@H](Cc1c[nH]c2ccccc12)C(=O)N[C@@H](CCC(N)=O)C(=O)N[C@H](C(=O)O)C(C)C [G9-154-1L2L] (H-LLWGQYWQV-OH; N-terminus and C-terminus assumed) | + (+, recognized) | 
14 | 3.4 nM | CC(C)C[C@H](N)C(=O)N[C@H](C(=O)N[C@@H](Cc1c[nH]c2ccccc12)C(=O)NCC(=O)N[C@@H](CCC(N)=O)C(=O)N[C@@H](Cc1ccc(O)cc1)C(=O)N[C@@H](Cc1c[nH]c2ccccc12)C(=O)N[C@@H](CCC(N)=O)C(=O)N[C@H](C(=O)O)C(C)C)[C@@H](C)O [G9-154-1L] (H-LTWGQYWQV-OH; N-terminus and C-terminus assumed) | + (+, recognized) | 
15 | 2.8 nM | CC(C)C[C@H](NC(=O)[C@@H](N)Cc1c[nH]c2ccccc12)C(=O)N[C@@H](Cc1c[nH]c2ccccc12)C(=O)NCC(=O)N[C@@H](CCC(N)=O)C(=O)N[C@@H](Cc1ccc(O)cc1)C(=O)N[C@@H](Cc1c[nH]c2ccccc12)C(=O)N[C@@H](CCC(N)=O)C(=O)N[C@H](C(=O)O)C(C)C [G9-154-1W2L] (H-WLWGQYWQV-OH; N-terminus and C-terminus assumed) | − | 
16 | 1.7 nM | CC(C)C[C@H](NC(=O)[C@@H](N)Cc1ccc(O)cc1)C(=O)N[C@@H](Cc1c[nH]c2ccccc12)C(=O)NCC(=O)N[C@@H](CCC(N)=O)C(=O)N[C@@H](Cc1ccc(O)cc1)C(=O)N[C@@H](Cc1c[nH]c2ccccc12)C(=O)N[C@@H](CCC(N)=O)C(=O)N[C@H](C(=O)O)C(C)C [G9-154-1Y2L] (H-YLWGQYWQV-OH; N-terminus and C-terminus assumed) | − | 
17 | 2.5 nM | CC(C)[C@H](NC(=O)[C@H](CCC(N)=O)NC(=O)[C@H](Cc1c[nH]c2ccccc12)NC(=O)[C@H](Cc1ccc(O)cc1)NC(=O)[C@H](CCC(N)=O)NC(=O)CNC(=O)[C@H](Cc1c[nH]c2ccccc12)NC(=O)[C@@H](NC(=O)[C@@H](N)Cc1ccc(O)cc1)[C@@H](C)O)C(=O)O [G9-154-1Y] | − | 
18 | 2 nM | CC(C)C[C@H](NC(=O)[C@@H](N)CCCCN)C(=O)N[C@@H](Cc1c[nH]c2ccccc12)C(=O)NCC(=O)N[C@@H](CCC(N)=O)C(=O)N[C@@H](Cc1ccc(O)cc1)C(=O)N[C@@H](Cc1c[nH]c2ccccc12)C(=O)N[C@@H](CCC(N)=O)C(=O)N[C@H](C(=O)O)C(C)C [G9-154-2L] (H-KLWGQYWQV-OH; N-terminus and C-terminus assumed) | + (+, recognized) | 
